# Measurements reported in patent publication US8492328B2, “Biomarkers and methods for determining sensitivity to insulin growth factor-1 receptor modulators” (Bristol-Myers Squibb Company, priority 2007, dated 2013).
# Entries after “also recorded” stand apart in the source; their conditions may differ.
# What was measured:
# HT1080/S = experiment: In vitro cellular proliferation assay ([3H]-thymidine incorporation); type: cell-based, human; details: HT1080/S (Fibrosarcoma)
# Method: (§1) All pediatric sarcoma and neuroblastoma cell lines were obtained from Dr. Lee Helman at NIH. All cell lines were grown in RPMI medium supplemented with Glutamax (Gibco/Invitrogen #61870-036), 10% inactivated fetal bovine serum (Gibco/Invitrogen #16140-071), 10 mM Hepes, penicillin and streptomycin.
# (§2) Cells were plated at an optimized density for each cell line per well in 96-well microtiter Falcon plates, incubated overnight, and then exposed to a serial dilution of drug. After 72 hours incubation with drug at 37° C., cells were pulsed with 4 μCi/ml [6-3H] thymidine (Amersham Pharmacia Biotech, UK) for 3 hours, trypsinized, harvested onto UniFilter-96, GF/B plates (PerkinElmer, Boston, Mass.) and scintillation was measured on a TopCount NXT (Packard, Conn.). Results were expressed as an IC50, which is the drug concentration required to inhibit cell proliferation by 50% to that of untreated control cells. The mean IC50 and standard deviation (SD) from multiple tests for each cell line were calculated.
# ME = experiment: as above; type: cell-based, human; details: ME (Rhabdomyosarcoma)
# Method: as §1, §2
# Rh4 = experiment: as above; type: cell-based, human; details: Rh4 (Rhabdomyosarcoma)
# Method: as §1, §2
# TC32 = experiment: as above; type: cell-based, human; details: TC32 (Ewing)
# Method: as §1, §2
# VW = experiment: as above; type: cell-based, human; details: VW (Ewing)
# Method: as §1, §2
# RD-1 cells = experiment: In vitro cellular proliferation assay, parental sensitive RD-1; type: cell-based; details: Homo sapiens, RD1; sensitive parental RD-1 (RMS) cells
# Method: as §1, §2
# Acquired resistance to anti-cancer agents is a major clinical problem. […] In order to identify markers that may contribute to acquired resistance to the IGF1R inhibitor, global gene expression profiles for both parental RD1 and resistant RD1 were analyzed using Affymetrix gene chip. […]
# Rh36 cells = experiment: Gene and protein expression profiling of cells with compound 1 treatment; type: cell-based, human; details: later time points, 36 and 72 hrs
# [1] = Homo sapiens, 72 hours with drug, read-out: IC50
smiles,measurement,setting,value
"Cc1cc(N2CCOCC2)cc2[nH]c(-c3c(NC[C@@H](O)c4cccc(Cl)c4)cc[nH]c3=O)nc12 [Compound 1, (S)-4-(2-(3-chlorophenyl)-2-hydroxyethylamino)-3-(4-methyl-6-morpholino-1H-benzo[d]imidazol-2-yl)-pyridin-2(1-H)-one]",Sensitivity Classification,HT1080/S,R (“R” means resistant to the corresponding compounds.)
same,IC50,"HT1080/S; Homo sapiens, HT-1080, 72 hours with drug, read-out: IC50",1410 nM
same,IC50,ME; [1],163 nM
same,Sensitivity Classification,ME,S (“S” means sensitive)
same,IC50,Rh4; [1],27 nM
same,Sensitivity Classification,Rh4,S (“S” means sensitive)
same,IC50,"TC32; Homo sapiens, TC-32, 72 hours with drug, read-out: IC50",55 nM
same,Sensitivity Classification,TC32,S (“S” means sensitive)
same,IC50,VW; [1],101 nM
same,Sensitivity Classification,VW,S (“S” means sensitive)
same,IC50,RD-1 cells,238 nM
same,effect of drug on gene/protein expression,Rh36 cells,"little to no effect; also recorded: little, to no effect"
